Experimental data published in US20110268699A1, “METHODS FOR TREATING MULTIPLE SCLEROSIS USING TETRACYCLIC PYRAZINOINDOLES” (BIOVISTA, INC., priority 2008, published 2011).
Where two headings read alike, the source gives them in different places.

How the values were obtained:
[1] = system: MOG-induced EAE in female C57BL/6J mice; assay type: in vivo, mouse
Description: Acute EAE Murine Model. […] The MOG murine model consists of a sensitization period, induced by the single subcutaneous (SC) injection of MOG emulsified in Complete Freund's Adjuvant (CFA) on study days 0 and 6, followed by IP supplemental immunostimulation with Pertussis Toxin (PT) carried out once at the time of EAE induction and once again 48 hours later.
Briefly, the study is performed in female C57BL/6J mice (Harlan Laboratories Israel, Ltd.) as young adults, 8-9 weeks of age at study initiation. animals are acclimatized to laboratory conditions at least 5 days. During acclimation and throughout the entire study duration, animals are housed in groups of 10 mice maximum in polypropylene cages, which are fitted with solid bottoms and filled with wood shavings as bedding material. Animals are provided ad libitum a commercial rodent diet and free access to drinking water, supplied to each cage via polyethylene bottles with stainless steel sipper tubes. Water is monitored periodically. Automatically controlled environmental conditions are set to maintain temperature at 20-24° C. with a relative humidity (RH) of 30-70%, a 12:12 hour light: dark cycle and 15-30 air changes/hr in the study room. Temperature and RH are monitored daily. The light cycle is monitored by the control clock. Weight variation of animals at the time of treatment initiation should not exceed ±20% of the mean weight. At the end of the study, surviving animals are euthanized by CO2 asphyxiation.
Antigen. […] This concentration is appropriate for the selected dose and dose volume of 200 μg MOG in 100 μL PBS.
MOG/CFA Emulsion. Prior to each inoculation carried out on study days 0 and 6, 100 μl of MOG solution (200 μg) is emulsified with 100 μl of CFA suspension (300 μg heat killed Mycobacterium Tuberculosis H37 Ra). […]
Initially, all animals are examined for signs of any neurological responses and symptoms prior to EAE induction (study day 0) and are examined on a daily basis throughout the 35-day observation period. EAE reactions are scored and recorded according to a 0-15 scale Clinical signs Scoring Methods. […]

[2] = system: MOG-induced EAE in female C57BL/6J mice; experiment: Histological analysis of spinal cord (H&E) of EAE mice: severity score and white matter damage; assay type: in vivo, mouse
Description: EXAMPLE. Histological Analysis of mice treated with pirlindole (BVA-201). Briefly, all samples are longitudinal sections of the vertebral column and spinal cord stained with hematoxylin and eosin (H&E). Sample A is the cranial part of the vertebral column and sample B is the caudal part. The modifiers F-focal, MF-multifocal, and D-diffuse are used to describe the distribution of inflammatory cellular infiltration. Diffuse is used when the lesion is continuous (at least on one side) and affects the entire SC. In some cases the lesion affects the entire SC (100%) but its distribution is multifocal because it is not contiguous i.e. there are small unaffected segments on one side, which are affected on the contralateral side. Histology analysis refers to 2 parameters: (a) Severity Score which is referring mainly but not limited to infiltration on inflammatory cells; and (b) White Matter Damage (WMD). Codes: Dist—distribution; GM—gray matter; IC—inflammatory cells; ND—not done; SC—spinal cord; Sev—severity; WM—white matter; WMD—white matter damage; WNL—within normal limits. Severity scores 0—WNL, 1—minimal, 2—mild, 3—moderate, 4—severe. Half grades are also used. Severity refers to the amount of inflammatory infiltration and WMD. If there is a discrepancy in the grade of these 2 changes, then this is noted. The extent of WMD is indicated in percentage referring to the amount of affected spinal cord tissue in the sample. In many cases the damage affected one side (dorsal or ventral) of the SC only. In some cases, when the plane of section is more lateral the WMD affects both sides. The available SC sample is considered 100%. Thus, if in a 5 cm long SC, there are changes in a 0.5 cm long segment, then this was noted as 10% irrespective of whether the damage affected one side or both. Although not reflected in the percentage, the extent of the lesion is taken into consideration in evaluation of the severity. WMD describes a set of changes including vacuolation, gliosis, and presence of myelin debris. […]

[3] = steady-state, trough sample (pre-dose), on average; cited from earlier work

Structure (SMILES)	Activity on EAE clinical score compared to the vehicle-only treatment group (A) ([1]; group C, 1.0 mg/kg IP once daily, at the end of the study)	Activity on EAE clinical score compared to the vehicle-only treatment group (A) ([1]; group C, 1.0 mg/kg IP once daily, intermediate time points on days 30, 31, and 32, p<0.05)	Activity on EAE clinical score compared to the vehicle-only treatment group (A) ([1]; group E, 10 mg/kg IP once daily from day 0, p<0.01, starting at day 15 and continuing throughout the study (day 23, p<0.05), FIG. 1)	Demyelination / myelin repair compared to the vehicle-only treatment group ([2]; BVA-201 treatment group, general statement)	Histology mean % of white matter damage (WMD) ([2]; group F, 30 mg/kg IP, FIG. 5)	Histology mean group severity score (inflammatory infiltration) versus vehicle ([2]; groups C (1 mg/kg) and F (30 mg/kg) IP, FIG. 3)	Metabolite concentration as share of the clozapine concentration in plasma [3]
Cc1ccc2c(c1)c1c3n2CCNC3CCC1 (stereo not shown) [Pirlindole, 2,3,3a,4,5,6-hexahydro-8-methyl-1H-pyrazino[3,2,1-j,k]carbazole]	not statistically significant	statistically significant	statistically significant	one or more of (a) less demyelination, (b) improved myelin repair, and/or (c) remyelination	significant protective effect	No difference	–
Clc1ccc2c(c1)N=C(N1CCNCC1)c1ccccc1N2 [Norclozapine]	–	–	–	–	–	–	~70%
